Test results: patent US20020198254A1, “Polyamide analogs” (priority 2000, published 2002)
Values after ≈ are worked out from the molar mass of the structure shown. Read-outs that look alike come from different tables or passages of the source.

Assays:
Type in all cases: cell-based
Candida albicans = assay: MIC assay, yeast C. albicans; settings: RPMI, 48 h, Alamar Blue
[1] = system: VRE-UCD3 (vancomycin resistant enterococci); assay: MIC assay, VRE strain UCD-3; settings: for MIC: Enterococcus, VRE
Description: (§1) These assays are adapted from NCCLS protocols M7-A4 and M27-A (NCCLS vol 17:9 and vol 17:2) as modified by Sandven, S. Clin. Micro. (1999) 37:12, p.3856-3859. MIC values for Aspergillus fumigatus were determined using NCCLS protocol M38-P.
(§2) All compounds were dissolved in 100% DMSO to a stock concentration of 10 mM and use fresh or stored at −80° C. Stock compounds were kept frozen until needed and used freshly with no more then one freeze-thaw cycle. When used for test purposes, compounds were diluted in the appropriate media depending on the organism being tested.
(§3) For yeast and aspergillus species, seven 1:2 serial dilutions of compound in appropriate media buffered with MOPS at pH 7.0 were prepared such that the final starting test compound concentrations were 50.0 uM for yeast and 50 uM aspergillus species. For bacteria, dilutions were made in growth media used for the particular bacteria being tested.
(§4) Inoculums are made in the same manner as yeast except all dilutions are made in normal saline, with a final dilution of 1:200 and an inoculum of 10 μL. VRE are vancomycin resistant enterococci, BM4147 and UCD-3 represent two different sources of VRE. MRSA are […] resistant Staphylococcus Aureus.

Moraxella catarrhalis = assay: MIC assay, M. catarrhalis; settings: BHI, 16 h
Description: as §1, §2, §3, §4

[2] = system: VRE-BM4147 (vancomycin resistant enterococci); assay: MIC assay, VRE strain BM4147; settings: for MIC: Enterococcus, VRE
Description: as §1, §2, §3, §4

[3] = system: VRE-UL17 (vancomycin resistant enterococci); assay: MIC assay, VRE strain UL-17; settings: for MIC: Enterococcus, VRE
Description: as §1, §2, §3, §4

Streptococcus pneumoniae = assay: MIC assay, S. pneumoniae; settings: CAMHB + 5% LHB, 24 h
Description: as §1, §2, §3, §4

Bacillus cereus = assay: MIC assay, B. cereus; settings: CAMHB, 16 h
Description: as §1, §2, §3, §4

Haemophilus influenzae = assay: MIC assay, H. influenzae; settings: HTM, 24 h
Description: as §1, §2, §3, §4

[4] = system: VRE-CSUC4 (vancomycin resistant enterococci); assay: MIC assay, VRE strain CSUC-4; settings: for MIC: Enterococcus, VRE
Description: as §1, §2, §3, §4

Staphylococcus aureus = assay: MIC assay, S. aureus; settings: CAMHB, 16 h
Description: as §1, §2, §3, §4

Pseudomonas aeruginosa = assay: MIC assay, P. aeruginosa; settings: CAMHB, 16 h
Description: as §1, §2, §3, §4

MIC Assay C. Albicans (Candida albicans) [µM] | MIC Assay VRE Strains: UCD-3 van25 ([1]; 25 μg/mL Vancomycin - 24 h) [µM] | MIC Assay VRE Strains: UCD-3 van0 ([1]; No vancomycin - 16 h) [µM] | MIC Assay Other Strains: M. catarrhalis (Moraxella catarrhalis) [µM] | MIC Assay VRE Strains: BM4147 van25 ([2]; 25 μg/mL Vancomycin - 24 h) [µM] | MIC Assay VRE Strains: BM4147 van0 ([2]; No vancomycin - 16 h) [µM] | MIC Assay VRE Strains: UL-17 van25 ([3]; 25 μg/mL Vancomycin - 24 h) [µM] | MIC Assay VRE Strains: UL-17 van0 ([3]; No vancomycin - 16 h) [µM] | MIC Assay Other Strains: S. pneumoniae (Streptococcus pneumoniae) [µM] | MIC Assay Other Strains: B. cereus (Bacillus cereus) [µM] | MIC Assay Other Strains: H influenzae (Haemophilus influenzae) [µM] | MIC Assay VRE Strains: CSUC-4 van25 ([4]; 25 μg/mL Vancomycin - 24 h) [µM] | MIC Assay VRE Strains: CSUC-4 van0 ([4]; No vancomycin - 16 h) [µM] | MIC Assay Other Strains: S. aureus (Staphylococcus aureus) [µM] | MIC Assay Other Strains: P. aeruginosa (Pseudomonas aeruginosa) [µM] | SMILES | further results
>44.4 | >45.5 | >45.5 | >45.5 | >45.5 | >45.5 | >45.5 | >45.5 | >45.5 | >45.5 | >45.5 | >45.5 | >45.5 | >45.5 | >45.5 | Cn1cc(NC(=O)CN)cc1C(=O)Nc1cc(C(=O)NC2CCC(CC3CCC(NC(=O)c4cc(NC(=O)c5cc(NC(=O)CN)cn5C)cn4C)CC3)CC2)n(C)c1 (centres unmarked) [Compound 21] | 
 |  |  |  |  |  |  |  |  |  |  |  |  |  |  | Cn1cc(NC(=O)c2cc(NC(=O)CN)cn2C)cc1C(=O)NCCCNCCCNC(=O)c1cc(NC(=O)c2cc(NC(=O)CN)cn2C)cn1C [Compound 113] | MIC (Candida albicans; Candida albicans): > 44.4 µM; MIC ([1]; 25 μg/mL Vancomycin - 24 h, read-out: MIC Assay VRE Strains: UCD-3 van25): 11.4 µM; MIC ([1]; No vancomycin - 16 h, read-out: MIC Assay VRE Strains: UCD-3 van0): 22.7 µM (≈ 16.7 µg/mL); MIC (Moraxella catarrhalis; Moraxella catarrhalis, read-out: MIC Assay Other Strains: M. catarrhalis): 5.7 µM (≈ 4.18 µg/mL); MIC ([2]; 25 μg/mL Vancomycin - 24 h, read-out: MIC Assay VRE Strains: BM4147 van25): 22.7 µM; MIC ([2]; No vancomycin - 16 h, read-out: MIC Assay VRE Strains: BM4147 van0): 22.7 µM (≈ 16.7 µg/mL); MIC ([3]; 25 μg/mL Vancomycin - 24 h, read-out: MIC Assay VRE Strains: UL-17 van25): 22.7 µM; MIC ([3]; No vancomycin - 16 h, read-out: MIC Assay VRE Strains: UL-17 van0): > 45.5 µM; MIC (Streptococcus pneumoniae; Streptococcus pneumoniae, read-out: MIC Assay Other Strains: S. pneumoniae): 11.4 µM; MIC (Bacillus cereus; Bacillus cereus, read-out: MIC Assay Other Strains: B. cereus): 11.4 µM (≈ 8.37 µg/mL); MIC (Haemophilus influenzae; Haemophilus influenzae, read-out: MIC Assay Other Strains: H influenzae): > 45.5 µM; MIC ([4]; 25 μg/mL Vancomycin - 24 h, read-out: MIC Assay VRE Strains: CSUC-4 van25): 45.5 µM; MIC ([4]; No vancomycin - 16 h, read-out: MIC Assay VRE Strains: CSUC-4 van0): 22.7 µM (≈ 16.7 µg/mL); MIC (Staphylococcus aureus; Staphylococcus aureus, read-out: MIC Assay Other Strains: S. aureus): > 45.5 µM; MIC (Pseudomonas aeruginosa; Pseudomonas aeruginosa, read-out: MIC Assay Other Strains: P. aeruginosa): > 45.5 µM
>44.4 | >45.5 |  | >45.5 | >45.5 |  | >45.5 |  | >45.5 | >45.5 | >45.5 | >45.5 |  | >45.5 | >45.5 | Cn1cc(NC(=O)c2cc(NC(=O)c3cc(NC(=O)CN)cn3C)cn2C)cc1C(=O)NCCCN(CCCN)CCCNC(=O)c1cc(NC(=O)c2cc(NC(=O)c3cc(NC(=O)CN)cn3C)cn2C)cn1C [Compound 66, N,N-bis-{4-{4-[(NH2CH2CONH)-1-methyl-1H-pyrrol-2-yl-carbonylamino]-1-methyl-1H-pyrrol-2-ylcarbonylamino}-1-methyl-1H-pyrrol-2-yl-carbonylaminopropyl}-N-(3-aminoethylpropyl)amine] | 
>44.4 | >45.5 | >45.5 | >45.5 | >45.5 | >45.5 | >45.5 | >45.5 | >45.5 | >45.5 | >45.5 | >45.5 | >45.5 | >45.5 | >45.5 | Cn1cc(NC(=O)c2cc(NC(=O)CN)cn2C)cc1C(=O)NCCNC(=O)c1cc(NC(=O)c2cc(NC(=O)CN)cn2C)cn1C [Compound 10, bis-1,2-{4-[(NH2CH2CONH)-1-methyl-1H-pyrrol-2-yl-carbonylamino]-1-methyl-1H-pyrrol-2-ylcarbonylamino}ethane] | 
>44.4 | 11.4 | 5.7 (≈ 6.23 µg/mL) | 1.4 (≈ 1.53 µg/mL) | 22.7 | 22.7 (≈ 24.8 µg/mL) | 22.7 | 11.4 (≈ 12.5 µg/mL) | 2.8 | 11.4 (≈ 12.5 µg/mL) | >45.5 | 22.7 | 22.7 (≈ 24.8 µg/mL) | 22.7 (≈ 24.8 µg/mL) | >45.5 | Cn1cc(NC(=O)c2cc(NC(=O)CN)cn2C)cc1C(=O)NCCCN(CCCNC(=O)c1cc(NC(=O)c2cc(NC(=O)CN)cn2C)cn1C)CCCNC(=O)c1cc(NC(=O)c2cc(NC(=O)CN)cn2C)cn1C [Compound 74, tris-{4-[(NH2CH2CONH)-1-methyl-1H-pyrrol-2-yl-carbonylamino]-1-methyl-1H-pyrrol-2-yl-carbonylaminopropyl}amine] | 

SMILES | MIC Assay C. Albicans (Candida albicans) [µM] | MIC Assay VRE Strains: UCD-3 van25 ([1]; 25 μg/mL Vancomycin - 24 h) [µM] | MIC Assay VRE Strains: UCD-3 van0 ([1]; No vancomycin - 16 h) [µM] | MIC Assay Other Strains: M. catarrhalis (Moraxella catarrhalis) [µM] | MIC Assay VRE Strains: BM4147 van25 ([2]; 25 μg/mL Vancomycin - 24 h) [µM] | MIC Assay VRE Strains: BM4147 van0 ([2]; No vancomycin - 16 h) [µM] | MIC Assay VRE Strains: UL-17 van25 ([3]; 25 μg/mL Vancomycin - 24 h) [µM] | MIC Assay VRE Strains: UL-17 van0 ([3]; No vancomycin - 16 h) [µM] | MIC Assay Other Strains: S. pneumoniae (Streptococcus pneumoniae) [µM] | MIC Assay Other Strains: B. cereus (Bacillus cereus) [µM] | MIC Assay Other Strains: H influenzae (Haemophilus influenzae) [µM] | MIC Assay VRE Strains: CSUC-4 van25 ([4]; 25 μg/mL Vancomycin - 24 h) [µM] | MIC Assay VRE Strains: CSUC-4 van0 ([4]; No vancomycin - 16 h) [µM] | MIC Assay Other Strains: S. aureus (Staphylococcus aureus) [µM] | MIC Assay Other Strains: P. aeruginosa (Pseudomonas aeruginosa) [µM] | further results
Cn1cc(NC(=O)c2cc(NC(=O)CN)cn2C)cc1C(=O)NCCCN(CCCNC(=O)c1cc(NC(=O)c2cc(NC(=O)CN)cn2C)cn1C)C(=O)OCc1ccccc1 [Compound 42] | >44.4 | 45.5 | 45.5 (≈ 39.5 µg/mL) | 11.4 (≈ 9.89 µg/mL) | >45.5 | >45.5 | 45.5 | 22.7 (≈ 19.7 µg/mL) | 1.4 | 11.4 (≈ 9.89 µg/mL) | >45.5 | 22.7 | 22.7 (≈ 19.7 µg/mL) | >45.5 | >45.5 | 
